For 27 compounds, IC50 results are on record in patent EP2801573A1, “Hydantoine derivatives as CD38 inhibitors” (SANOFI, priority 2013, dated 2014).

Assay [1] has as its target T1, human recombinant CD38 enzyme (Homo sapiens, UniProt P28907).
T1 construct: purchased R&D Systems H7006
T1 sequence (P28907 1-300): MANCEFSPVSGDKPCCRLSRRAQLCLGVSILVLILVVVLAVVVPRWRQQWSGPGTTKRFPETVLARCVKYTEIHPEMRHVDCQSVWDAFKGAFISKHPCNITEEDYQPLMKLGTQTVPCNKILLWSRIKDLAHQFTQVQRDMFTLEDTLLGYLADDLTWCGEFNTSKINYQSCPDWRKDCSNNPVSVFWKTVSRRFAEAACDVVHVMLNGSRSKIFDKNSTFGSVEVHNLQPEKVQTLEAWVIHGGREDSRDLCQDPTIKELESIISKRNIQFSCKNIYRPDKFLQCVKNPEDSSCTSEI
The experiment in a line: Human recombinant enzyme assay (fluorimetric CD38 enzyme assay, ε-NAD substrate). It counts as biochemical. The following applies: recombinant CD38 100 ng/ml, ε-NAD 100 µM, pH = 6.0, 37°C, reaction time 30 min; read-out: IC50 (nM) ENAD. How it is done: Enzyme assay on human recombinant CD38 enzyme were performed in order to determine the in vitro potency of the newly synthesized compounds. IC50 values were determined for the test compounds and used to explore the structure-activity relationships (SAR).
(§1) N6-etheno-NAD (ε-NAD), a NAD analogue previously shown to be a convenient substrate of CD38 enzyme activity (Graeff et al. J. Biol. Chem. 269, pp 30260-30367, […]) was used to measure the activity of human recombinant CD38 and cell surface enzyme activity.
A fluorimetric CD38 enzyme assay was performed as described by Graeff et al. The reaction was started with 10 µl of N6-etheno-NAD (ε-NAD) substrate, final concentration 100 µM, in a final volume of 0.1 ml buffered with 50 mM HEPES, 0.05% BRIJ, pH = 6.0 containing 100 ng/ml recombinant CD38 (R&D Systems, H7006). Cleavage of ε-NAD, which causes a 10-fold fluorescence enhancement, was continuously followed at 37°C in a BMG Polarstar spectrofluorometer at an emission wavelength of 410 nm and an excitation of 300 nm, reaction time was 30 min. NADase activity was expressed as Δ relative fluorescence/min. The rate of enzyme reactions were compared in the presence and absence of inhibitor molecule, the IC50 values were calculated with Biostat Speed program.

Assay [2] concerns the target T2, natural cell surface human CD38 enzyme (Homo sapiens, UniProt P28907).
T2 construct: The A549 cells express active CD38 enzyme on the cell surface; endogenous in cells; host or cells: A549 human lung epithelial cells (ATCC CCL 185)
T2 sequence (P28907 1-300): T1 sequence (P28907 1-300)
The experiment in a line: Cell surface enzyme assay on A549 cells. It counts as cell-based. The conditions noted are these: A549 human lung epithelial cells, pre-incubated 15 min, ε-NAD 100 µM, 60 min, pH=7.4. On the procedure: A549 human lung epithelial cells were used as enzyme source. The A549 cells express active CD38 enzyme on the cell surface.
as §1
Type II-like human lung epithelial cells A 549 (ATCC CCL 185) were grown in RPMI 1640 medium supplemented with 10% fetal calf serum, 2mM 1-glutamine and penicillin/streptomycin 1% in a humidified incubator with an atmosphere of 95% air and 5% CO2 at 37 °C. At about 70-80% confluence, cells were detached with trypsin/EDTA solution to form a cell suspension and counted. Cell viability was higher as 95% using trypan blue dye. Cells were plated at a density of 500.000 cells/well (24 well plate), before 24 hours of starting the enzyme assay. The medium was removed and replaced by assay buffer (20 mM HEPES, pH=7.4 containing 140 mM NaCl, 5 mM KCl, 1 mM MgSO4 1 mM CaCl2, 1mM Na2HPO4, 5.5 mM glucose).
A549 cells (800.000/well, 500 µl) were pre-incubated in the presence and absence of inhibitors for 15 min before the addition of ε-NAD, final substrate concentration was 100 µM. After 60 min, the plate was centrifuged and 100 µl of supernatant was removed and measured fluorimetrically in BMG Polarstar spectrofluorimeter at an emission wavelength of 410 nm and an excitation of 300 nm. The mean difference in the fluorescence between reaction stopped at 0 and 60 min was used an arbitrary unit of NADase activity. The NADase activity in the absence and presence of inhibitors were compared and IC50 values were calculated.

`O=C1N/C(=C\c2ccncc2)C(=O)N1c1ccc(Cl)cc1` [Compound 2, 3-(4-Chloro-phenyl)-5-[1-pyridin-4-yl-meth-(Z)-ylidene]-imidazolidine-2,4-dione]: the IC50 – broadly, the point on the concentration scale where inhibition reaches its midpoint – came to 30 nM in assay [1] and 181 nM in assay [2]. The corresponding values for `CCCCc1ccc(N2C(=O)N/C(=C\c3ccncc3)C2=O)cc1` [Compound 24, 3-(4-Butyl-phenyl)-5-[1-pyridin-4-yl-meth-(Z)-ylidene]-imidazolidine-2,4-dione] are 80 nM and 297 nM. The corresponding values for `O=C(c1cccc(N2C(=O)N/C(=C\c3ccncc3)C2=O)c1)N1CCOCC1` [Compound 28, 3-[3-(Morpholine-4-carbonyl)-phenyl]-5-[1-pyridin-4-yl-meth-(Z)-ylidene]-imidazolidine-2,4-dione] are 50 nM and 359 nM. The corresponding values for `O=C1N/C(=C\c2ccncc2)C(=O)N1c1ccc(I)cc1` [Compound 33, 3-(4-Iodo-phenyl)-5-[1-pyridin-4-yl-meth-(Z)-ylidene]-imidazolidine-2,4-dione] are 38 nM and 272 nM.

With `O=C1N/C(=C\c2ccncc2)C(=O)N1C1CCC(O)CC1` (stereo not drawn) [Compound 40, 3-(4-Hydroxy-cyclohexyl)-5-[1-pyridin-4-yl-meth-(Z)-ylidene]-imidazolidine-2,4-dione], the half-inhibitory concentration (IC50) in assay [1] was found to be 214 nM. In the case of `CCCN1C(=O)N/C(=C\c2ccncc2)C1=O` [Compound 41, 3-Propyl-5-[1-pyridin-4-yl-meth-(Z)-ylidene]-imidazolidine-2,4-dione], the 50% inhibitory concentration (IC50) in assay [1] worked out at 80 nM.

Take `CCC(C)N1C(=O)N/C(=C\c2ccncc2)C1=O` (stereo not drawn) [Compound 42, 3-sec-Butyl-5-[1-pyridin-4-yl-meth-(Z)-ylidene]-imidazolidine-2,4-dione]: the IC50 in assay [1] stood at 868 nM.

In the case of `CCOC(=O)CN1C(=O)N/C(=C\c2ccncc2)C1=O` [Compound 43, {2,5-Dioxo-4-[1-pyridin-4-yl-meth-(Z)-ylidene]-imidazolidin-1-yl}-acetic acid ethyl ester], the IC50 in assay [1] amounted to 224 nM. The same measure, in the same setting: then `O=C1N/C(=C\c2ccncc2)C(=O)N1CCCN1CCOCC1` [Compound 44, 3-(3-Morpholin-4-yl-propyl)-5-[1-pyridin-4-yl-meth-(Z)-ylidene]-imidazolidine-2,4-dione], with 151 nM; and `C[C@@H]1CN(C(=O)c2ccc(N3C(=O)N/C(=C\c4ccncc4)C3=O)cc2)C[C@H](C)O1` [Compound 45, 3-[4-((2R,6S)-2,6-Dimethyl-morpholine-4-carbonyl)-phenyl]-5-[1-pyridin-4-yl-meth-(Z)-ylidene]-imidazolidine-2,4-dione], with 34 nM. The same measure, in the same setting: as for `O=C(O)CN1C(=O)N/C(=C\c2ccncc2)C1=O` [Compound 46, {2,5-Dioxo-4-[1-pyridin-4-yl-meth-(Z)-ylidene]-imidazolidin-1-yl}-acetic acid], the figure is 490 nM. On the same count and under the same terms, as for `CC1CCN(C(=O)c2ccc(N3C(=O)N/C(=C\c4ccncc4)C3=O)cc2)CC1` [Compound 47, 3-[4-(4-Methyl-piperidine-1-carbonyl)-phenyl]-5-[1-pyridin-4-yl-meth-(Z)-ylidene]-imidazolidine-2,4-dione], the figure is 74 nM; as for `O=C(c1ccc(N2C(=O)N/C(=C\c3ccncc3)C2=O)cc1)N1CCCC1` [Compound 48, 5-[1-Pyridin-4-yl-meth-(Z)-ylidene]-3-[4-(pyrrolidine-1-carbonyl)-phenyl]-imidazolidine-2,4-dione], 52 nM.

On to `O=C(NC1CCCC1)c1ccc(N2C(=O)N/C(=C\c3ccncc3)C2=O)cc1` [Compound 49, N-Cyclopentyl-4-{2,5-dioxo-4-[1-pyridm-4-yl-meth-(Z)-ylidene]-imidazolidm-1-yl}-benzamide], for which the IC50 in assay [1] is 50 nM.

As to `O=C(NC1CC1)c1ccc(N2C(=O)N/C(=C\c3ccncc3)C2=O)cc1` [Compound 50, N-Cyclopropyl-4-{2,5-dioxo-4-[1-pyridin-4-yl-meth-(Z)-ylidene]-imidazolidin-1-yl}-benzamide], in assay [1], the concentration for half-maximal inhibition (IC50) is 63 nM. As to `O=C(NC1CCCCC1)c1ccc(N2C(=O)N/C(=C\c3ccncc3)C2=O)cc1` [Compound 51, N-Cyclohexyl-4-{2,5-dioxo-4-[1-pyndin-4-yl-meth-(Z)-ylidene]-imidazolidin-1-yl}-benzamide], the IC50 in assay [1] turned out to be 63 nM.

For `CC(C)(CO)CN1C(=O)N/C(=C\c2ccncc2)C1=O` [Compound 52, 3-(3-Hydroxy-2,2-dimethyl-propyl)-5-[1-pyridin-4-yl-meth-(Z)-ylidene]-imidazolidine-2,4-dione], the IC50 in assay [1] came to 42 nM. Regarding `O=C1N/C(=C\c2ccncc2)C(=O)N1C1CC(F)(F)C1` [Compound 53, 3-(3,3-Difluoro-cyclobutyl)-5-[1-pyridin-4-yl-meth-(Z)-ylidene]-imidazolidine-2,4-dione], the IC50 in assay [1] is 50 nM; in assay [2], 249 nM.

Regarding `CCOC(=O)C1CCN(C(=O)c2ccc(N3C(=O)N/C(=C\c4ccncc4)C3=O)cc2)CC1` [Compound 54, 1-(4-{2,5-Dioxo-4-[1-pyridin-4-yl-meth-(Z)-ylidene]-imidazotidin-l-yl}-benzoyl)-piperidine-4-carboxylic acid ethyl ester], the half-inhibitory concentration (IC50) in assay [1] stood at 36 nM. Take `O=C1N/C(=C\c2ccncc2)C(=O)N1CC1(O)CCCCC1` [Compound 55, 3-(1-Hydroxy-cyclohexylmethyl)-5-[1-pyridin-4-yl-meth-(Z)-ylidene]-imidazotidine-2,4-dione]: the IC50 in assay [1] was found to be 55 nM; in assay [2], 242 nM. The corresponding values for `O=C1N/C(=C\c2ccncc2)C(=O)N1CC1CCOCC1` [Compound 56, 5-[1-Pyridin-4-yl-meth-(Z)-ylidene]-3-(tetrahydro-pyran-4-ylmethyl)-imidazolidine-2,4-dione] are 20 nM and 137 nM. As to `CC(C)(O)CCN1C(=O)N/C(=C\c2ccncc2)C1=O` [Compound 57, 3-(3-Hydroxy-3-methyl-butyl)-5-[1-pyridin-4-yl-meth-(Z)-ylidene] -imidazolidine-2,4-dione], the IC50 in assay [1] amounted to 20 nM.

On to `O=C1N/C(=C\c2ccncc2)C(=O)N1CC1(O)CCCC1` [Compound 58, 3-(1-Hydroxy-cyclopentylmethyl)-5-[1-pyridin-4-yl-meth-(Z)-ylidene]-imidazolidine-2,4-dione], for which the figures for the IC50 in assay [1] and in assay [2] were 30 nM and 246 nM, respectively.

With `O=C1N/C(=C\c2ccncc2)C(=O)N1CC1(O)CCC1` [Compound 59, 3-(1-Hydroxy-cyclobutylmethyl)-5-[1-pyridin-4-yl-meth-(Z)-ylidene]-imidazolidine-2,4-dione], the figures for the half-maximal inhibitory concentration (IC50) in assay [1] and in assay [2] were 35 nM and 98.5 nM, respectively. As for `O=C1N/C(=C\c2ccncc2)C(=O)N1CC1(CO)CCC1` [Compound 63, 3-(1-Hydroxymethyl-cyclobutylmethyl)-5-[1-pyridin-4-yl-meth-(Z)-ylidene]-imidazolidine-2,4-dione], the IC50 in assay [1] stood at 12 nM. The same measure, in the same setting: as for `O=C1N/C(=C\c2ccncc2)C(=O)N1CC1(CO)CCCC1` [Compound 64, 3-(1-Hydroxymethyl-cyclopentylmethyl)-5-[1-pyridin-4-yl-meth-(Z)-ylidene]-imidazolidine-2,4-dione], the figure is 16 nM. Consider `O=C1N/C(=C\c2ccncc2)C(=O)N1CCNC(=O)C(F)(F)F` [Compound 65, N-(2-{2,5-Dioxo-4-[1-pyridin-4-yl-meth-(Z)-ylidene]-imidazolidin-1-yl}-ethyl)-2,2,2-trifluoro-acetamide], for which the IC50 in assay [1] was 240 nM.
